Laboratory results published in patent US4396543A.
Converted amounts (≈) assume the structure as drawn. “And” between values parts separate entries of the source, which are not always exact repeats. Equal entries are not always repeated.

Experiments:
[1] = toxicity test, LD50; details: mouse, in vivo, iv; administered intravenously; read-out: LD50 (mg/kg) in Mice
[2] = test system: Staphylococcus aureus X1.1; experiment: agar-dilution MIC; type: cell-based; details: two values = two experiments, 2 median of five, 19 median of three experiments
Procedure: (§1) In Table VII activity is measured by the minimal inhibitory concentration (MIC), i.e. the lowest concentration of compound at which growth of the microorganism is inhibited by the test compound.

[3] = test system: Streptococcus pyogenes; experiment: in vivo experimental bacterial infection, ED50; details: mice; for ED50 Values Streptococcus pyogenes Oral: two doses orally; for ED50 Values Streptococcus pyogenes Subcutaneous: two doses subcutaneously, two values = two experiments
[4] = test system: Staphylococcus aureus; experiment: in vivo experimental bacterial infection, ED50; details: mice, two doses subcutaneously; two values = two experiments
[5] = test system: Streptococcus Group D X66; experiment: agar-dilution MIC; type: cell-based; details: two values = two experiments, 2 median of five, 19 median of three
Procedure: as §1

[6] = test system: Streptococcus Group D 9960; experiment: agar-dilution MIC; type: cell-based; details: two values = two experiments, 2 median of five, 19 median of three
Procedure: as §1

[7] = test system: Staphylococcus epidermidis EPI2; experiment: agar-dilution MIC; type: cell-based; details: two values = two experiments, 2 median of five, 19 median of three
[8] = test system: Streptococcus pneumoniae Park I; type: cell-based; details: two values = two experiments, 2 median of five, 19 median of three
Procedure: as §1

[9] = test system: Staphylococcus epidermidis EPI1; type: cell-based; details: two values = two experiments, 2 median of five, 19 median of three
[10] = test system: Staphylococcus aureus X400; experiment: agar-dilution MIC; type: cell-based; details: Staphylococcus aureus X400, methicillin-resistant strain; two values = two experiments; 2 median of five, 19 median of three
Procedure: as §1

[11] = test system: Staphylococcus aureus V41; experiment: agar-dilution MIC; type: cell-based; details: Staphylococcus aureus V41, penicillin-resistant strain; two values = two experiments; 2 median of five, 19 median of three
Procedure: as §1

[12] = test system: Streptococcus pyogenes C203; experiment: agar-dilution MIC; type: cell-based; details: two values = two experiments, 2 median of five, 19 median of three

SMILES	LD50 [1]	MIC [2]	ED50 Values Streptococcus pyogenes Oral [3]	ED50 Values Staphylococcus aureus Subcutaneous [4]	MIC [5]	MIC [6]	MIC [7]	MIC [8]	MIC [9]	MIC [10]	MIC [11]	MIC [12]	ED50 Values Streptococcus pyogenes Subcutaneous [3]
CCCCCCCCCCCC(=O)NCCCCC(=O)N[C@@H](Cc1c[nH]c2ccccc12)C(=O)N[C@H](CC(N)=O)C(=O)N[C@@H](CC(=O)O)C(=O)N[C@@H]1C(=O)NCC(=O)N[C@@H](CCCN)C(=O)N[C@@H](CC(=O)O)C(=O)N[C@H](C)C(=O)N[C@@H](CC(=O)O)C(=O)NCC(=O)N[C@H](CO)C(=O)N[C@@H]([C@H](C)CC(=O)O)C(=O)N[C@@H](CC(=O)c2ccccc2N)C(=O)O[C@@H]1C [Compound 2]	> 600 mg/kg	4 µg/mL (≈ 2.29 µM)	117 mg/kg × 2	0.65 mg/kg × 2 and 0.93 mg/kg × 2	32 µg/mL (≈ 18.3 µM)	8 µg/mL (≈ 4.58 µM)	2 µg/mL (≈ 1.14 µM)	4 µg/mL (≈ 2.29 µM)	4 µg/mL (≈ 2.29 µM)	4 µg/mL (≈ 2.29 µM)	4 µg/mL (≈ 2.29 µM)	1 µg/mL (≈ 0.572 µM)	
CCCCCCCCCCCC(=O)Nc1cccc(C(=O)N[C@@H](Cc2c[nH]c3ccccc23)C(=O)N[C@H](CC(N)=O)C(=O)N[C@@H](CC(=O)O)C(=O)N[C@@H]2C(=O)NCC(=O)N[C@@H](CCCN)C(=O)N[C@@H](CC(=O)O)C(=O)N[C@H](C)C(=O)N[C@@H](CC(=O)O)C(=O)NCC(=O)N[C@H](CO)C(=O)N[C@@H]([C@H](C)CC(=O)O)C(=O)N[C@@H](CC(=O)c3ccccc3N)C(=O)O[C@@H]2C)c1 [Compound 5]	277 mg/kg	0.5 µg/mL (≈ 0.283 µM)	> 200 mg/kg × 2	1.67 mg/kg × 2	4 µg/mL (≈ 2.26 µM)	1 µg/mL (≈ 0.566 µM)	1 µg/mL (≈ 0.566 µM)	0.25 µg/mL (≈ 0.141 µM)	2 µg/mL (≈ 1.13 µM)	1 µg/mL (≈ 0.566 µM)	0.5 µg/mL (≈ 0.283 µM)	0.25 µg/mL (≈ 0.141 µM)	> 0.25 mg/kg × 2 and 0.46 mg/kg × 2
CCCCCCCCCCCC(=O)N[C@@H](Cc1ccccc1)C(=O)N[C@@H](Cc1c[nH]c2ccccc12)C(=O)N[C@H](CC(N)=O)C(=O)N[C@@H](CC(=O)O)C(=O)N[C@@H]1C(=O)NCC(=O)N[C@@H](CCCN)C(=O)N[C@@H](CC(=O)O)C(=O)N[C@H](C)C(=O)N[C@@H](CC(=O)O)C(=O)NCC(=O)N[C@H](CO)C(=O)N[C@@H]([C@H](C)CC(=O)O)C(=O)N[C@@H](CC(=O)c2ccccc2N)C(=O)O[C@@H]1C [Compound 8]	250 mg/kg	0.25 µg/mL (≈ 0.139 µM)	150 mg/kg × 2	2.35 mg/kg × 2	1 µg/mL (≈ 0.557 µM)	0.25 µg/mL (≈ 0.139 µM)	1 µg/mL (≈ 0.557 µM)	0.125 µg/mL (≈ 0.0696 µM)	1 µg/mL (≈ 0.557 µM)	0.5 µg/mL (≈ 0.278 µM)	0.25 µg/mL (≈ 0.139 µM)	0.25 µg/mL (≈ 0.139 µM)	0.32 mg/kg × 2
CCCCCCCCCCCC(=O)N[C@@H](Cc1c[nH]c2ccccc12)C(=O)N[C@@H](Cc1c[nH]c2ccccc12)C(=O)N[C@H](CC(N)=O)C(=O)N[C@@H](CC(=O)O)C(=O)N[C@@H]1C(=O)NCC(=O)N[C@@H](CCCN)C(=O)N[C@@H](CC(=O)O)C(=O)N[C@H](C)C(=O)N[C@@H](CC(=O)O)C(=O)NCC(=O)N[C@H](CO)C(=O)N[C@@H]([C@H](C)CC(=O)O)C(=O)N[C@@H](CC(=O)c2ccccc2N)C(=O)O[C@@H]1C [Compound 24]	450 mg/kg	1 µg/mL (≈ 0.545 µM)	> 200 mg/kg × 2	2.3 mg/kg × 2	16 µg/mL (≈ 8.72 µM)	4 µg/mL (≈ 2.18 µM)	4 µg/mL (≈ 2.18 µM)	1 µg/mL (≈ 0.545 µM)	4 µg/mL (≈ 2.18 µM)	4 µg/mL (≈ 2.18 µM)	2 µg/mL (≈ 1.09 µM)	2 µg/mL (≈ 1.09 µM)	
CCCCCCC(=O)NCCCCCCCCCCC(=O)N[C@@H](Cc1c[nH]c2ccccc12)C(=O)N[C@H](CC(N)=O)C(=O)N[C@@H](CC(=O)O)C(=O)N[C@@H]1C(=O)NCC(=O)N[C@@H](CCCN)C(=O)N[C@@H](CC(=O)O)C(=O)N[C@H](C)C(=O)N[C@@H](CC(=O)O)C(=O)NCC(=O)N[C@H](CO)C(=O)N[C@@H]([C@H](C)CC(=O)O)C(=O)N[C@@H](CC(=O)c2ccccc2N)C(=O)O[C@@H]1C [Compound 14]	> 600 mg/kg	4 µg/mL (≈ 2.27 µM)	> 200 mg/kg × 2	> 18 mg/kg × 2	> 128 µg/mL	64 µg/mL (≈ 36.3 µM)	8 µg/mL (≈ 4.54 µM)	8 µg/mL (≈ 4.54 µM)	8 µg/mL (≈ 4.54 µM)	8 µg/mL (≈ 4.54 µM)	4 µg/mL (≈ 2.27 µM)	2 µg/mL (≈ 1.14 µM)	> 9 mg/kg × 2
CCCCCCCCCCCC(=O)NCCCCCCCCCCC(=O)N[C@@H](Cc1c[nH]c2ccccc12)C(=O)N[C@H](CC(N)=O)C(=O)N[C@@H](CC(=O)O)C(=O)N[C@@H]1C(=O)NCC(=O)N[C@@H](CCCN)C(=O)N[C@@H](CC(=O)O)C(=O)N[C@H](C)C(=O)N[C@@H](CC(=O)O)C(=O)NCC(=O)N[C@H](CO)C(=O)N[C@@H]([C@H](C)CC(=O)O)C(=O)N[C@@H](CC(=O)c2ccccc2N)C(=O)O[C@@H]1C [Compound 3]	600 mg/kg	2 µg/mL (≈ 1.09 µM)	> 200 mg/kg × 2	> 18 mg/kg × 2	8 µg/mL (≈ 4.37 µM)	8 µg/mL (≈ 4.37 µM)	8 µg/mL (≈ 4.37 µM)	0.5 µg/mL (≈ 0.273 µM)	8 µg/mL (≈ 4.37 µM)	8 µg/mL (≈ 4.37 µM)	2 µg/mL (≈ 1.09 µM)	2 µg/mL (≈ 1.09 µM)	6.2 mg/kg × 2
CCCCCCCCCCCC(=O)Nc1cc(Cl)cc(C(=O)N[C@@H](Cc2c[nH]c3ccccc23)C(=O)N[C@H](CC(N)=O)C(=O)N[C@@H](CC(=O)O)C(=O)N[C@@H]2C(=O)NCC(=O)N[C@@H](CCCN)C(=O)N[C@@H](CC(=O)O)C(=O)N[C@H](C)C(=O)N[C@@H](CC(=O)O)C(=O)NCC(=O)N[C@H](CO)C(=O)N[C@@H]([C@H](C)CC(=O)O)C(=O)N[C@@H](CC(=O)c3ccccc3N)C(=O)O[C@@H]2C)c1Cl [Compound 7]	200 mg/kg	0.5 µg/mL (≈ 0.272 µM)	> 200 mg/kg × 2	19 mg/kg × 2	2 µg/mL (≈ 1.09 µM)	2 µg/mL (≈ 1.09 µM)	2 µg/mL (≈ 1.09 µM)	0.125 µg/mL (≈ 0.0681 µM)	2 µg/mL (≈ 1.09 µM)	2 µg/mL (≈ 1.09 µM)	1 µg/mL (≈ 0.544 µM)	1 µg/mL (≈ 0.544 µM)	0.23 mg/kg × 2
